We go through 9 compounds from the RepoRT retention time repository (doi:10.1016/j.foodchem.2021.129757).

A short description of one data set: RP, Waters ACQUITY UPLC HSS T3, 100 × 2.1 mm, 1.8 µm, 30 °C, 0.4 mL/min, estimated dead time 0.55 min; A: water + 0.1% formic acid, pH 3; B: acetonitrile + 0.1% formic acid, pH 3; gradient (min/%B) 0/0 2/0 15/100 22/100 22.1/0 26/0. The note with it: stereoisomer not certain.
As to `O=c1oc2cc(O)ccc2c2ccccc12` [Urolithin B], the LC retention time is 12.2 min.
`C[n+]1cccc(C(=O)[O-])c1` [Trigonelline]: the LC retention time was 0.96 min.
In the case of `O=C(O)c1cc(O)c(O)c(O)c1` [Gallic acid], the LC retention time was 4.98 min.

Another data set can be described thus: RP, 100 × 0.5 mm, 2.7 µm, 45 °C, 0.015 mL/min, estimated dead time 0.83 min; A: water + 0.9% formic acid; B: acetonitrile + 0.9% formic acid; gradient (min/%B) 0/1 0.5/1 4/95 4.5/1 5/1. Particulars: stereoisomer not certain.
For `Cn1cnc2c1c(=O)[nH]c(=O)n2C` [Theobromine], the LC retention time was 2.05 min.
Turning to `COc1ccc(C(=O)O)cc1OC` [Veratric acid], the LC retention time is 2.4 min.
Take `Oc1cc(O)c2c(c1)OC1(c3ccc(O)c(O)c3)Oc3cc(O)c4c(c3C2C1O)OC(c1ccc(O)c(O)c1)C(O)C4` (stereo not drawn) [Procyanidin A2]: the LC retention time was 2.53 min.
For `CC12CCc3occc3C1CCC13CC(CCC12)C(O)(CO)C3` (stereo not drawn) [Cafestol], the LC retention time is 4.04 min.
Take `O=S(=O)(O)Oc1c(O)cccc1O` [Pyrogallol 2-O-sulfate]: the LC retention time is 2.2 min.
The same measure, in the same setting: under `COc1cc(C=CC(=O)CC(=O)C=Cc2ccc(O)c(OC)c2)ccc1O` [Curcumin] stands 3.75 min; under `O=c1oc2cc(O)ccc2c2ccccc12` [Urolithin B], 3.47 min.
As to `C[n+]1cccc(C(=O)[O-])c1` [Trigonelline], the LC retention time is 2.72 min.

The next data set in a line: RP, Agilent ZORBAX RRHD Eclipse Plus C18, 50 × 2.1 mm, 1.8 µm, 30 °C, 0.4 mL/min, estimated dead time 0.28 min; A: water + 0.1% formic acid, pH 3; B: acetonitrile + 0.1% formic acid, pH 3; gradient (min/%B) 0/1 5/10 8/25 9.1/99 10/99 12/99. The note with it: stereoisomer not certain.
As to `O=S(=O)(O)Oc1c(O)cccc1O` [Pyrogallol 2-O-sulfate], the LC retention time is 1.34 min.
As to `O=C(O)c1cc(O)c(O)c(O)c1` [Gallic acid], the LC retention time is 0.713 min.

A further data set is described as follows: RP, Phenomenex Luna Omega Polar C18, 100 × 2.1 mm, 1.6 µm, 40 °C, 0.5 mL/min, estimated dead time 0.44 min; A: water + 0.5% formic acid; B: acetonitrile + 0.5% formic acid; gradient (min/%B) 0/5 3/50 3.1/100 5/100 5.1/5 7/5. The note with it: stereoisomer not certain.
Regarding `Cn1cnc2c1c(=O)[nH]c(=O)n2C` [Theobromine], the LC retention time was 1.45 min.
`Oc1cc(O)c2c(c1)OC1(c3ccc(O)c(O)c3)Oc3cc(O)c4c(c3C2C1O)OC(c1ccc(O)c(O)c1)C(O)C4` (stereo not drawn) [Procyanidin A2]: the LC retention time was 2.41 min.
Consider `CC12CCc3occc3C1CCC13CC(CCC12)C(O)(CO)C3` (stereo not drawn) [Cafestol], for which the LC retention time is 2.42 min.
Regarding `O=S(=O)(O)Oc1c(O)cccc1O` [Pyrogallol 2-O-sulfate], the LC retention time is 1.49 min.
As to `COc1cc(C=CC(=O)CC(=O)C=Cc2ccc(O)c(OC)c2)ccc1O` [Curcumin], the LC retention time was 3.84 min.
As to `O=c1oc2cc(O)ccc2c2ccccc12` [Urolithin B], the LC retention time is 3.72 min.
The same measure, in the same setting: under `C[n+]1cccc(C(=O)[O-])c1` [Trigonelline] stands 0.58 min.
Consider `O=C(O)c1cc(O)c(O)c(O)c1` [Gallic acid], for which the LC retention time was 1.15 min.

A further data set can be described thus: RP, Merck Supelco SUPELCOSIL LC-C18, 250 × 4.6 mm, 5 µm, 40 °C, 1 mL/min, estimated dead time 2.6 min; A: water + 0.1% trifluoroacetic acid, pH 2; B: acetonitrile + 0.1% trifluoroacetic acid, pH 2; gradient (min/%B) 0/5 45/35 47/75 49/35 50/5. The note with it: stereoisomer not certain.
As for `O=C(O)c1cc(O)c(O)c(O)c1` [Gallic acid], the LC retention time was 5.2 min.

Another data set in a line: RP, Agilent ZORBAX Eclipse XDB-C18, 100 × 2.1 mm, 1.8 µm, 50 °C, 0.4 mL/min, estimated dead time 0.55 min; A: water + 0.1% formic acid, pH 3; B: methanol + 0.1% formic acid, pH 3; gradient (min/%B) 0/2 10/100 14.5/100 14.51/2 16.5/2. The note with it: stereoisomer not certain.
In the case of `Cn1cnc2c1c(=O)[nH]c(=O)n2C` [Theobromine], the LC retention time is 2.49 min.
With `COc1ccc(C(=O)O)cc1OC` [Veratric acid], the LC retention time is 4.84 min.
For the compound `Oc1cc(O)c2c(c1)OC1(c3ccc(O)c(O)c3)Oc3cc(O)c4c(c3C2C1O)OC(c1ccc(O)c(O)c1)C(O)C4` (stereo not drawn) [Procyanidin A2], the LC retention time was 4.3 min.
Still for that read-out and setting: with `CC12CCc3occc3C1CCC13CC(CCC12)C(O)(CO)C3` (stereo not drawn) [Cafestol] the figure was 9.33 min; with `O=S(=O)(O)Oc1c(O)cccc1O` [Pyrogallol 2-O-sulfate], 1.76 min; with `COc1cc(C=CC(=O)CC(=O)C=Cc2ccc(O)c(OC)c2)ccc1O` [Curcumin], 8.13 min.
On to `O=c1oc2cc(O)ccc2c2ccccc12` [Urolithin B], for which the LC retention time is 7.19 min.
As to `O=C(O)c1cc(O)c(O)c(O)c1` [Gallic acid], the LC retention time is 1.47 min.

The nature of the next data set: RP, Waters ACQUITY UPLC HSS T3, 100 × 2.1 mm, 50 °C; A: water + 0.1% formic acid, pH 3; B: 30% methanol + 70% acetonitrile + 0.1% formic acid, pH 3; gradient (min/%B) 0/5 1/8 2/15 3/40 4/70 4.5/100 5/100 6.4/100 6.6/5 6.8/5 7/5. The note with it: stereoisomer not certain.
In the case of `Cn1cnc2c1c(=O)[nH]c(=O)n2C` [Theobromine], the LC retention time stood at 2.12 min.

A short description of another data set: RP, Waters ACQUITY UPLC BEH Shield RP18, 150 × 2.1 mm, 1.7 µm, 40 °C, 0.4 mL/min, estimated dead time 0.83 min; A: water + 0.1% formic acid, pH 3; B: acetonitrile + 0.1% formic acid, pH 3; gradient (min/%B) 0/0 30/50 31/100 37/100 37.1/0. The note with it: stereoisomer not certain.
With `Cn1cnc2c1c(=O)[nH]c(=O)n2C` [Theobromine], the LC retention time was 2.67 min.
In the case of `O=S(=O)(O)Oc1c(O)cccc1O` [Pyrogallol 2-O-sulfate], the LC retention time is 7.61 min.
The same measure, in the same setting: with `COc1cc(C=CC(=O)CC(=O)C=Cc2ccc(O)c(OC)c2)ccc1O` [Curcumin] the figure was 13 min; with `O=c1oc2cc(O)ccc2c2ccccc12` [Urolithin B], 22.6 min.
Still for that read-out and setting: under `C[n+]1cccc(C(=O)[O-])c1` [Trigonelline] stands 1.03 min; under `O=C(O)c1cc(O)c(O)c(O)c1` [Gallic acid], 2.41 min.

A further data set in a line: RP, Phenomenex Luna C18, 150 × 4.6 mm, 3 µm, 25 °C, 0.5 mL/min, estimated dead time 3.2 min; A: water + 0.1% formic acid, pH 3; B: acetonitrile + 0.1% formic acid, pH 3; gradient (min/%B) 0/0 30/30 35/40 50/80 52/80 60/0 65/0. The note with it: stereoisomer not certain.
As for `Cn1cnc2c1c(=O)[nH]c(=O)n2C` [Theobromine], the LC retention time is 6.29 min.
With `COc1ccc(C(=O)O)cc1OC` [Veratric acid], the LC retention time is 24.9 min.
Same read-out and setting: under `Oc1cc(O)c2c(c1)OC1(c3ccc(O)c(O)c3)Oc3cc(O)c4c(c3C2C1O)OC(c1ccc(O)c(O)c1)C(O)C4` (stereo not drawn) [Procyanidin A2] stands 24.4 min; under `CC12CCc3occc3C1CCC13CC(CCC12)C(O)(CO)C3` (stereo not drawn) [Cafestol], 50 min.
In the case of `O=S(=O)(O)Oc1c(O)cccc1O` [Pyrogallol 2-O-sulfate], the LC retention time was 18.4 min.
`COc1cc(C=CC(=O)CC(=O)C=Cc2ccc(O)c(OC)c2)ccc1O` [Curcumin]: the LC retention time was 48.7 min.
On the same count and under the same terms, with `O=c1oc2cc(O)ccc2c2ccccc12` [Urolithin B] the figure was 44.4 min; with `O=C(O)c1cc(O)c(O)c(O)c1` [Gallic acid], 5.35 min.

Another data set is described as follows: RP, Agilent ZORBAX RRHD Eclipse Plus C18, 50 × 2.1 mm, 1.8 µm, 30 °C, 0.4 mL/min, estimated dead time 0.28 min; A: water + 0.1% formic acid, pH 3; B: acetonitrile + 0.1% formic acid, pH 3; gradient (min/%B) 0/1 5/10 8/25 9.1/99 10/99 12/1. The note with it: stereoisomer not certain.
Take `Oc1cc(O)c2c(c1)OC1(c3ccc(O)c(O)c3)Oc3cc(O)c4c(c3C2C1O)OC(c1ccc(O)c(O)c1)C(O)C4` (stereo not drawn) [Procyanidin A2]: the LC retention time was 8.05 min.
Take `O=S(=O)(O)Oc1c(O)cccc1O` [Pyrogallol 2-O-sulfate]: the LC retention time is 2.36 min.
Regarding `O=C(O)c1cc(O)c(O)c(O)c1` [Gallic acid], the LC retention time was 1.64 min.
